Source: PubChem BioAssay AID1963961 (Molecular Pharmacology Branch, DTP, NCI, 2024)

Test system: K98450-129-R-PDC multicell spheroids, viability
Experiment: Anticancer human tumor K98450-129-R-PDC patient-derived colon adenocarcinoma cell line growth inhibition [PI3K]
Conditions: for IC50: curve of first compound; for viability, T/C: stronger effect = lower value
Procedure, shortened: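 Three cell types, namely tumor cells, endothelial cells and mesenchymal stem cells, formed each spheroid. Combinations with four PI3K inhibitors were screened at clinically achievable concentrations decreasing by half-log, and spheroid viability was recorded.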

[1] = second compound 0.00316 µM, first compound 0.0316 µM
[2] = second compound 0.00316 µM, first compound 0.1 µM
[3] = second compound 0.01 µM, first compound 0.0316 µM
[4] = second compound 0.01 µM, first compound 0.1 µM
[5] = second compound 0.0316 µM, first compound 0.0316 µM
[6] = second compound 0.0316 µM, first compound 0.1 µM
[7] = second compound 0.0316 µM, first compound 0.316 µM
[8] = second compound 0.0316 µM, first compound 1 µM
[9] = second compound 0.0316 µM, first compound 3.16 µM
[10] = second compound 0.0316 µM, first compound 10 µM
[11] = second compound 0.1 µM, first compound 0.0316 µM
[12] = second compound 0.1 µM, first compound 0.1 µM
[13] = second compound 0.1 µM, first compound 0.316 µM
[14] = second compound 0.1 µM, first compound 1 µM
[15] = second compound 0.1 µM, first compound 3.16 µM
[16] = second compound 0.1 µM, first compound 10 µM
[17] = second compound 0.316 µM, first compound 0.0316 µM
[18] = second compound 0.316 µM, first compound 0.1 µM
[19] = second compound 0.316 µM, first compound 0.316 µM
[20] = second compound 0.316 µM, first compound 1 µM
[21] = second compound 0.316 µM, first compound 3.16 µM
[22] = second compound 0.316 µM, first compound 10 µM
[23] = second compound 1 µM, first compound 0.0316 µM
[24] = second compound 1 µM, first compound 0.1 µM
[25] = second compound 1 µM, first compound 0.316 µM
[26] = second compound 1 µM, first compound 1 µM
[27] = second compound 1 µM, first compound 3.16 µM
[28] = second compound 1 µM, first compound 10 µM
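Further: spheroids exposed to agents for seven days before read-out.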

SMILES: Cn1nccc1Nc1nccc(-c2ccn(C(CO)c3ccc(Cl)c(F)c3)c(=O)c2)n1 (stereo unspecified) + CC(Nc1ccc2c(c1)OCCn1cc(N3C(=O)OCC3C(F)F)nc1-2)C(N)=O
- IC50 (second compound 0.00316 µM): > 10 µM
- IC50 (second compound 0.01 µM): > 10 µM
- IC50 (second compound 0.0316 µM): > 10 µM
- IC50 (second compound 0.1 µM): > 10 µM
- IC50 (second compound 0.316 µM): > 10 µM
- IC50 (second compound 1 µM): > 10 µM
- viability, T/C [1]: 109%
- viability, T/C [2]: 96.3%
- viability, T/C (second compound 0.00316 µM, first compound 0.316 µM): 107%
- viability, T/C (second compound 0.00316 µM, first compound 1 µM): 99.2%
- viability, T/C (second compound 0.00316 µM, first compound 3.16 µM): 101%
- viability, T/C (second compound 0.00316 µM, first compound 10 µM): 94.2%
- viability, T/C [3]: 108%
- viability, T/C [4]: 97.5%
- viability, T/C (second compound 0.01 µM, first compound 0.316 µM): 99.1%
- viability, T/C (second compound 0.01 µM, first compound 1 µM): 94.7%
- viability, T/C (second compound 0.01 µM, first compound 3.16 µM): 98.8%
- viability, T/C (second compound 0.01 µM, first compound 10 µM): 88.7%
- viability, T/C [5]: 103%
- viability, T/C [6]: 103%
- viability, T/C [7]: 96.5%
- viability, T/C [8]: 94.4%
- viability, T/C [9]: 99.2%
- viability, T/C [10]: 91%
- viability, T/C [11]: 95.5%
- viability, T/C [12]: 98.5%
- viability, T/C [13]: 98.2%
- viability, T/C [14]: 93.1%
- viability, T/C [15]: 98.9%
- viability, T/C [16]: 88.7%
- viability, T/C [17]: 91.5%
- viability, T/C [18]: 90.7%
- viability, T/C [19]: 101%
- viability, T/C [20]: 96.2%
- viability, T/C [21]: 99.4%
- viability, T/C [22]: 87.4%
- viability, T/C [23]: 83.6%
- viability, T/C [24]: 84.4%
- viability, T/C [25]: 91%
- viability, T/C [26]: 87.7%
- viability, T/C [27]: 90.9%
- viability, T/C [28]: 82.2%

SMILES: CC1(C)CCC(Nc2ncc(C(F)(F)F)c(-c3c[nH]c4c(P(C)(C)=O)c(C#N)ccc34)n2)CN1 (stereo unspecified) + Cc1nc(NC(=O)N2CCCC2C(N)=O)sc1-c1ccnc(C(C)(C)C(F)(F)F)c1
- IC50 (second compound 0.0316 µM): > 10 µM
- IC50 (second compound 0.1 µM): > 10 µM
- IC50 (second compound 0.316 µM): > 10 µM
- IC50 (second compound 1 µM): > 10 µM
- IC50 (second compound 3.16 µM): > 10 µM
- IC50 (second compound 10 µM): > 10 µM
- viability, T/C [5]: 118%
- viability, T/C [6]: 101%
- viability, T/C [7]: 94.7%
- viability, T/C [8]: 68.7%
- viability, T/C [9]: 69.8%
- viability, T/C [10]: 64.6%
- viability, T/C [11]: 116%
- viability, T/C [12]: 104%
- viability, T/C [13]: 87.2%
- viability, T/C [14]: 67.4%
- viability, T/C [15]: 71.1%
- viability, T/C [16]: 67.6%
- viability, T/C [17]: 104%
- viability, T/C [18]: 102%
- viability, T/C [19]: 84.7%
- viability, T/C [20]: 69%
- viability, T/C [21]: 69.7%
- viability, T/C [22]: 66.7%
- viability, T/C [23]: 103%
- viability, T/C [24]: 96.8%
- viability, T/C [25]: 85.8%
- viability, T/C [26]: 69.6%
- viability, T/C [27]: 70%
- viability, T/C [28]: 63.4%
- viability, T/C (second compound 3.16 µM, first compound 0.0316 µM): 88.1%
- viability, T/C (second compound 3.16 µM, first compound 0.1 µM): 95.5%
- viability, T/C (second compound 3.16 µM, first compound 0.316 µM): 83%
- viability, T/C (second compound 3.16 µM, first compound 1 µM): 67.8%
- viability, T/C (second compound 3.16 µM, first compound 3.16 µM): 67.4%
- viability, T/C (second compound 3.16 µM, first compound 10 µM): 56.5%
- viability, T/C (second compound 10 µM, first compound 0.0316 µM): 81.6%
- viability, T/C (second compound 10 µM, first compound 0.1 µM): 85.5%
- viability, T/C (second compound 10 µM, first compound 0.316 µM): 70%
- viability, T/C (second compound 10 µM, first compound 1 µM): 60.8%
- viability, T/C (second compound 10 µM, first compound 3.16 µM): 62.4%
- viability, T/C (second compound 10 µM, first compound 10 µM): 50.5%

SMILES: CC(=O)c1c(C)c2cnc(Nc3ccc(N4CCNCC4)cn3)nc2n(C2CCCC2)c1=O + CC(Nc1ccc2c(c1)OCCn1cc(N3C(=O)OCC3C(F)F)nc1-2)C(N)=O
- IC50 (second compound 0.00316 µM): > 0.1 µM
- IC50 (second compound 0.01 µM): > 0.1 µM
- IC50 (second compound 0.0316 µM): > 0.1 µM
- IC50 (second compound 0.1 µM): > 0.1 µM
- IC50 (second compound 0.316 µM): > 0.1 µM
- IC50 (second compound 1 µM): > 0.1 µM
- viability, T/C (second compound 0.00316 µM, first compound 0.000316 µM): 113%
- viability, T/C (second compound 0.00316 µM, first compound 0.001 µM): 103%
- viability, T/C (second compound 0.00316 µM, first compound 0.00316 µM): 105%
- viability, T/C (second compound 0.00316 µM, first compound 0.01 µM): 97.2%
- viability, T/C [1]: 99.9%
- viability, T/C [2]: 95.7%
- viability, T/C (second compound 0.01 µM, first compound 0.000316 µM): 109%
- viability, T/C (second compound 0.01 µM, first compound 0.001 µM): 101%
- viability, T/C (second compound 0.01 µM, first compound 0.00316 µM): 104%
- viability, T/C (second compound 0.01 µM, first compound 0.01 µM): 91.2%
- viability, T/C [3]: 103%
- viability, T/C [4]: 92.8%
- viability, T/C (second compound 0.0316 µM, first compound 0.000316 µM): 111%
- viability, T/C (second compound 0.0316 µM, first compound 0.001 µM): 95.7%
- viability, T/C (second compound 0.0316 µM, first compound 0.00316 µM): 103%
- viability, T/C (second compound 0.0316 µM, first compound 0.01 µM): 94.9%
- viability, T/C [5]: 100%
- viability, T/C [6]: 95.6%
- viability, T/C (second compound 0.1 µM, first compound 0.000316 µM): 97.7%
- viability, T/C (second compound 0.1 µM, first compound 0.001 µM): 100%
- viability, T/C (second compound 0.1 µM, first compound 0.00316 µM): 92.7%
- viability, T/C (second compound 0.1 µM, first compound 0.01 µM): 94.8%
- viability, T/C [11]: 99.1%
- viability, T/C [12]: 103%
- viability, T/C (second compound 0.316 µM, first compound 0.000316 µM): 94.3%
- viability, T/C (second compound 0.316 µM, first compound 0.001 µM): 96.5%
- viability, T/C (second compound 0.316 µM, first compound 0.00316 µM): 100%
- viability, T/C (second compound 0.316 µM, first compound 0.01 µM): 93.3%
- viability, T/C [17]: 103%
- viability, T/C [18]: 91.4%
- viability, T/C (second compound 1 µM, first compound 0.000316 µM): 89%
- viability, T/C (second compound 1 µM, first compound 0.001 µM): 95.8%
- viability, T/C (second compound 1 µM, first compound 0.00316 µM): 94.1%
- viability, T/C (second compound 1 µM, first compound 0.01 µM): 95.2%
- viability, T/C [23]: 96.1%
- viability, T/C [24]: 82%
